Measured values published in patent US20090137662A1, “SYNERGY OF DOPAMINE D2 AND ADENOSINE A2 RECEPTORS ACTIVATES PKA SIGNALING VIA BETA/GAMMA DIMERS” (The Regents of the University of California, priority 2002, published 2009).
Read-outs that look alike come from different tables or passages of the source.

Assays:
ε-PKC [1] = assay type: cell-based; conditions: NG108-15 cells; for ε-PKC (% cells) Cytoplasmic staining / ε-PKC (% cells) Perinuclear staining: EtOH exposure, n = 5; for ε-PKC (% cells) Cytoplasmic staining: control 5 ± 2; for ε-PKC (% cells) Perinuclear staining: control 95 ± 2
Protocol: (§1) Naive NG108-15 cells were, therefore, incubated in for ten (10) min. in 100 nM PMA, to then determine localization of δ-PKC and ε-PKC.

δ-PKC [2] = assay type: cell-based; conditions: NG108-15 cells
Protocol: as §1

δ-PKC [3] = assay: Translocation of δ-PKC in NG108-15 and CHO cells expressing the applicable receptor; assay type: cell-based
Description: (§2) To determine whether addictive drugs other than ethanol would cause translocation of some proteins, we examine the effects of various receptor agonists and antagonists on ε-PKC δ-PKC or PKA Cα translocation in NG108-15 and CHO cells expressing the applicable receptor. […] Adenosine is also implicated in some behavioral effects of ethanol.
(§3) The mechanisms underlying ethanol- and dopamine-mediated translocation of ε-PKC and δ-PKC were studied by altering the activity of various molecules that might be in the pathways leading to translocation.

ε-PKC [4] = assay: Translocation of ε-PKC in NG108-15 and CHO cells expressing the applicable receptor; assay type: cell-based
Description: as §2, §3

GFP-RIIβ = conditions: +100 mM EtOH 30 min, unstimulated: Golgi Apparatus
[5] = system: Ethanol-indicative proteins in NG108 cells; conditions: ethanol 10 minutes or 12-48 hours
Description: (§4) The particular protein and cellular subregion(s) selected for examination can vary depending on the cell type to be used in a particular method. Cells used in the methods of the invention are of a cell type in which the selected protein is predominantly present in a different amount in a particular cellular subregion of ethanol-exposed cells compared to ethanol-unexposed cells. […] One of skill in the art can readily determine the intracellular distribution of other ethanol indicative proteins by staining ethanol-exposed and ethanol-unexposed cells of various cell types with stains (e.g., antibodies) specific for such proteins.

[6] = system: Ethanol-indicative proteins in Purkinje cells; conditions: Purkinje cells in brain section; ethanol 72 hr exposure; EUC origin Cytoplasm
Description: as §4

[7] = system: Ethanol-indicative proteins in CHO cells
Description: as §4

[8] = system: Ethanol-indicative proteins in lymphocytes; conditions: Lymphocyte; ethanol-exposed; EUC origin Cytoplasm
Description: as §4

GFP-Cα = assay type: cell-based
[9] = system: CRE-regulated luciferase expression; assay: CRE-luciferase reporter in NG108-15 cells; assay type: cell-based; conditions: NG108-15 cells; for increase in luciferase activity above control: 200 mM ethanol
Protocol: Luciferase is used as a reporter gene in a transient expression system to identify substances that alter the effects of ethanol on CRE-regulated gene expression. Cells are cultured as described in Dohrman et al., Proc Natl Acad Sci USA (1996) 93:10217-10221, and are transfected using Effectene (Qiagene) as described by the manufacturers. Twenty-four hours after transfection the cells are treated with 200 mM ethanol for 30 min. to 36 hr. Luciferase activity is measured using Luciferase Assay System (Promega) and normalized to β-galactosidase activity.
(§5) NG108-15 cells were co-transfected with a fusion construct containing the cAMP response element (CRE) fused to luciferase as a reporter gene (Stratagene).
Since the ERK/MAPK pathway may regulate CREB phosphorylation and CRE-mediated gene expression, NG108-15 cells having the luciferase construct were co-incubated with 200 mM ethanol and a MEK inhibitor (PD98059 (2 nM, Calbiochem, San Diego, Calif.) or U0126 (1 μM, Calbiochem, San Diego, Calif.)) or a dominant negative MEK construct (DN-MEK, Dr. R. Seger) in which Lys-97 was replaced by alanine.
as §5

ε-PKC [10] = assay type: cell-based; conditions: NG 108-15 or CHO cells; Ethanol 200 mM, 30 min; no compound: Perinucleus
Protocol: NG 108-15 or CHO cells were pre-incubated in the presence or absence of the indicated inhibitor for 30 min. (except for GF which was pre-incubated for 1 hour), then further incubated in the absence or presence of 200 mM ethanol for 30 min.

PKCδ-GFP = conditions: +100 mM EtOH/30 min; for Subcellular Localization of PKCδ-GFP: unstimulated: Golgi Apparatus
[11] = system: CREB (GAL4-CREB fusion, luciferase reporter); assay: GAL4-CREB / GAL4-luciferase reporter in NG108-15 cells; assay type: cell-based; conditions: ethanol exposure
Protocol: Cells are cultured as described in Dohrman et al., Proc Natl Acad Sci USA (1996) 93:10217-10221, and are transfected using Effectene (Qiagene) as described by the manufacturers. […] Luciferase activity is measured using Luciferase Assay System (Promega) and normalized to β-galactosidase activity.
NG108-15 cells are co-transfected with a GAL4-CREB fusion construct and with a second construct containing the DNA binding site of GAL4 fused to luciferase as a reporter gene. […] The ethanol-induced increase in luciferase activity induced was inhibited by Rp-cAMPS but not by the CaMK and PKC inhibitors KN-62 and GF, respectively (FIGS. 15 and 16B).

PKA Cα [12] = assay: PKA Cα translocation in NG108-15/D2 cells (immunocytochemistry, cell fractionation/western)
[13] = system: CRE-mediated gene expression; assay: CRE-luciferase reporter assay in NG108-15/D2 cells
Protocol: Cells were transiently transfected with a CRE-luciferase reporter construct to measure gene expression via endogenous CRE-binding protein (CREB).
NG108-15/D2 cells were plated at 1×10^6 cells/100 mm plate, grown in defined medium for 3 days, and then transfected with 10 μg of CRE-luciferase construct using the LipofectAMINE reagent (GIBCOL) as recommended by the manufacturer. Cells were cultured for 24 h post transfection before being seeded into 12-well plates. […] Cells were then washed with PBS and cultured for a total of 5 h. Cell extracts were prepared and luciferase activity measured with a luciferase assay system (Promega, Madison, Wis.), using a Rosys Anthos Lucy2 microplate luminometer (Anthos Labtec Instruments, Austria). Results are expressed as percent increase over control. Data represent three or more separate experiments from triplet wells. Luciferase activities were normalized for transfection efficiency determined in cells transfected in parallel with pCMVβgalactosidase. β-galactosidase activity was measured using a kit from Strategene (La Jolla, Calif.).

CREB phosphorylation = CREB phosphorylation measured with antibody specific for phosphorylated CREB; assay type: cell-based
PKA Cα [14] = assay type: cell-based
Description: as §2

PKA Cα [15] = assay: PKA Cα translocation in primary cultures of hippocampal neurons
[16] = ethanol 10′ exposure, EUC origin Perinucleus

CCO [Ethanol, ethanol]
ethanol-induced altered localization of ε-PKC (ε-PKC [1]; 25 mM ethanol, 4 days): also observed | ε-PKC (% cells) Cytoplasmic staining (ε-PKC [1]; listed as EtOH): 94 ± 2 % cells | ε-PKC (% cells) Cytoplasmic staining (ε-PKC [1]; listed as ethanol): more than 90 % cells | ε-PKC (% cells) Perinuclear staining (ε-PKC [1]; listed as EtOH): 94 ± 3 % cells | ε-PKC (% cells) Perinuclear staining (ε-PKC [1]; listed as ethanol): more than 90 % cells | ethanol-induced altered localization of δ-PKC (δ-PKC [2]; 25 mM ethanol, 4 days): also observed | δ-PKC (% cells) Golgi Staining (δ-PKC [2]; 200 mM EtOH 48 hours, n = 5, control 74 ± 7): 2 ± 2 % cells | localization of δ-PKC (δ-PKC [2]; 200 mM EtOH, 48 hours): localized to the perinucleus and nucleus and absent from the Golgi | Predominant Localization of δ-PKC (agent alone) (δ-PKC [3]; 200 mM Ethanol or 50 nM NPA, None: Golgi): Perinucleus & | Translocation of δ PKC and δ PKC, agent alone (δ-PKC [3]; D2-receptor-expressing NG108-15 and CHO cells, 10^−9 M NPA or 25 mM ethanol alone): neither agent alone caused translocation | Predominant Localization of ε-PKC (agent alone) (ε-PKC [4]; NG108-15 cells expressing the applicable receptor, 200 mM Ethanol, 50 nM NPA, 1 μM D-ala-D-leu-enkephalin, 2 μM R(+) methanindamide, 20 μM Carbachol, 10^−5 M UK14304, 20 nM CCPA, 100 nM CGS-21680 HCl, None: Perinucleus): Cytoplasm | Subcellular Localization of GFP-RIIβ (GFP-RIIβ; 1° Glia): Golgi Apparatus | Subcellular Localization of GFP-RIIβ (GFP-RIIβ; 1° Neurons): Golgi Apparatus | Subcellular Localization of GFP-RIIβ (GFP-RIIβ; NG108-15/D2R): Golgi Apparatus | Cellular subregion in which the protein is predominantly present, EEC (Destination): RIIβ ([5]; EUC origin Golgi): Nucleus | Cellular subregion in which the protein is predominantly present, EEC (Destination): δ-PKC ([5]; EUC origin Golgi): Perinucleus and nucleus | Cellular subregion in which the protein is predominantly present, EEC (Destination): Protein Phosphatase I and IIB ([5]; EUC origin Nucleus): Cytoplasm | Cellular subregion in which the protein is predominantly present, EEC (Destination): RACK 2 (β′COP) ([5]; EUC origin Perinucleus): Cytoplasm | Cellular subregion in which the protein is predominantly present, EEC (Destination): ε-PKC ([5]; EUC origin Perinucleus): Cytoplasm | Cellular subregion in which the protein is predominantly present, EEC (Destination): ε-PKC [6]: Not detectable | Cellular subregion in which the protein is predominantly present, EEC (Destination): RACK 2 (β′COP) [7, 16]: Cytoplasm | Cellular subregion in which the protein is predominantly present, EEC (Destination): ε-PKC [7, 16]: Cytoplasm | Cellular subregion in which the protein is predominantly present, EEC (Destination): δ-PKC ([7]; ethanol 10 minutes or 12-48 hours, EUC origin Golgi): Perinucleus and nucleus | Cellular subregion in which the protein is predominantly present, EEC (Destination): δ-PKC [8]: Cytoplasm | Cellular subregion in which the protein is predominantly present, EEC (Destination): ε-PKC [8]: Cytoplasm | Subcellular localization of GFP-Cα (GFP-Cα; 1° Glia (rat hippocampus culture), +100 mM EtOH/30 min or 50 nM NPA/30 min, unstimulated: Golgi Apparatus): Nucleus | cells showing the stated localization of GFP-Cα (GFP-Cα; 1° Glia, +100 mM EtOH/30 min or 50 nM NPA/30 min): [<20% cells] | Subcellular localization of GFP-Cα (GFP-Cα; 1° Neurons (rat hippocampus culture), +100 mM EtOH/30 min, unstimulated: Golgi Apparatus): Nucleus | cells showing the stated localization of GFP-Cα (GFP-Cα; 1° Neurons, +100 mM EtOH/30 min): [>50% cells] | cells showing the stated localization of GFP-Cα (GFP-Cα; NG108-15/D2R, +100 mM EtOH/30 min or 50 nM NPA/30 min): [>50% cells] | Subcellular localization of GFP-Cα (GFP-Cα; NG108-15/D2R, +100 mM EtOH/30 min or 50 nM NPA/30 min, unstimulated: Golgi Apparatus): Nucleus | increase in luciferase activity ([9]; 50 mM ethanol, 14-hour exposure): about 25% | increase in luciferase activity above control ([9]; 4 hour exposure): 29±6% | increase in luciferase activity above control ([9]; 14 hours of exposure): 79±4% | increase of expression of luciferase (CRE-luciferase) ([9]; ethanol exposure): more than 2 fold | Predominant ε-PKC Localization (ε-PKC [10]): Cytoplasm | Subcellular Localization of PKCδ-GFP (PKCδ-GFP; 1° Glia): Golgi Apparatus | cells showing the stated localization of PKCδ-GFP (PKCδ-GFP; NG108-15/D2R): [>50% cells] | Subcellular Localization of PKCδ-GFP (PKCδ-GFP; NG108-15/D2R): Perinucleus/ | increase of expression of luciferase (GAL4-CREB / GAL4-luciferase) [11]: approximately 2 fold

CCCN1CCc2cccc3c2[C@H]1Cc1ccc(O)c(O)c1-3 [NPA, R(−)-10,11-dihydroxy-N-n-propylnorapomorphine]
PKA Cα in subcellular fractions (Western blot) (PKA Cα [12]): translocation of PKA Cα from the membrane fraction to the nucleus and cytoplasm | PKA Cα localization after agonist or ethanol (immunostaining) (PKA Cα [12]): translocation of PKA Cα from the Golgi into the cytoplasm and nucleus | PKA Cα translocation, subthreshold NPA and ethanol together (PKA Cα [12]): striking synergistic increase | PKA translocation at subthreshold concentration, agent alone (PKA Cα [12]): did not cause PKA translocation | time at which NPA-induced PKA Cα translocation reaches a maximum (PKA Cα [12]): 10 min | Km (PKA Cα [12]; read-out: Km of NPA-induced PKA Cα translocation (function of NPA concentration)): 1.6 nM | CRE-mediated luciferase activity, subthreshold NPA and ethanol together [13]: striking synergistic increase | luciferase activity (CRE-luciferase) [13]: increases luciferase activity to the same extent as forskolin | Predominant Localization of δ-PKC (agent alone) (δ-PKC [3]): Perinucleus & | Translocation of δ PKC and δ PKC, agent alone (δ-PKC [3]): neither agent alone caused translocation | Translocation of δ PKC and δ PKC, co-incubation of NPA and ethanol (δ-PKC [3]): induced | Predominant Localization of ε-PKC (agent alone) (ε-PKC [4]): Cytoplasm | levels of CREB phosphorylation, co-incubation of ethanol and NPA (CREB phosphorylation): synergistic interactions | Subcellular localization of GFP-Cα (GFP-Cα): Nucleus | cells showing the stated localization of GFP-Cα (GFP-Cα): [>50% cells] | Predominant Localization of PKA Cα (agent alone) (PKA Cα [14]): Nucleus & | translocation of PKA-Cα, agent alone (PKA Cα [14]): did not cause any perceptible translocation | translocation of PKA-Cα, co-incubation of ethanol and NPA (PKA Cα [14]): maximal translocation | PKA Cα localization after agonist or ethanol (PKA Cα [15]): PKA Cα translocation to the cytoplasm, neurites and nucleus | PKA Cα translocation, subthreshold NPA and ethanol together (PKA Cα [15]): Synergy of PKA Cα translocation occurs
